According to patent US9795619B2, “Pharmaceutical compositions” (priority 2012, dated 2017):
Values belong to the compound of their own block, whether it stands above or below them.

Key:
HIV [1] = settings: cited from earlier work
[2] = LAP Rat PK study, SQ and IM injections (IV values given for reference); set-up: species or system Sprague-Dawley rats; settings: Sprague-Dawley, in vivo, rat (FIG. 1)
[3] = LAP Dog PK study, SQ and IM injections (IV values given for reference); set-up: species or system Beagle dogs; settings: in vivo
HIV [4] = assay: human protein adjusted IC90 (reference line in FIG. 1 and FIG. 2); format: cell-based
[5] = LAP Rat PK study, SQ and IM injections (IV values given for reference); settings: in vivo, Sprague-Dawley rats; for Cmax / Tmax / half-life: n=3
Procedure: Injections were made in Sprague-Dawley rats SQ and IM at 5 and 20 mg/kg doses with T1/2, Cmax, Tmax, and AUC being measured.

[6] = LAP Dog PK study, SQ and IM injections (IV values given for reference); settings: in vivo, dose 5 mg/kg, Beagle dogs
Procedure: Injections were also made in Beagle dogs SQ and IM at 5 and 20 mg/kg doses with T1/2, Cmax, Tmax, and AUC measured.

[7] = dog, sc, SQ, dose 2.5 mg/kg, Beagle dogs, n=3
[8] = dog, IM, dose 2.5 mg/kg, Beagle dogs, n=3

SMILES: C=C(C)[C@@H]1CC[C@]2(C(=O)O)CC[C@]3(C)[C@H](CC[C@@H]4[C@@]5(C)CC[C@H](OC(=O)CC(C)(C)C(=O)O)C(C)(C)[C@@H]5CC[C@]43C)[C@@H]12 [Bevirimat]
reduced HIV viral load by a mean of (HIV [1]; patients with trough levels >=20 μg/mL and without key baseline Gag polymorphisms at Q369, V370 or T371): 1.3 log10/mL
HIV viral load reduction versus patients without Gag polymorphisms (HIV [1]; users with Gag polymorphisms at Q369, V370 or T371): significantly lower load reductions

AUC(0-t) ([2]; read-out: AUC0-24 IV): 2960 ng·h/mL
half-life ([2]; read-out: T1/2 IV (converted)): 3.4 h
AUC(0-t) ([3]; Beagle, IV, dog (FIG. 2), read-out: AUC0-24 IV): 4150 ng·h/mL
half-life ([3]; Beagle, IV, dog (FIG. 2), read-out: T1/2 IV (converted)): 6.9 h
Cmax [3, 7]: 38 ± 11 ng/mL
Tmax [3, 7]: 144 h
half-life ([3]; dog, sc, SQ, dose 2.5 mg/kg, Beagle dogs, n=3, read-out: T1/2 (converted)): 96 h
AUC(0-t) ([3]; dog, sc, SQ, dose 2.5 mg/kg, Beagle dogs, t = 22 days, read-out: AUC0-t): 7900 ng·h/mL
Cmax [3, 8]: 59.3 ± 23.2 ng/mL
Tmax [3, 8]: 80 ± 13.9 h
half-life ([3]; dog, IM, dose 2.5 mg/kg, Beagle dogs, n=3, read-out: T1/2 (converted)): 72 h
AUC(0-t) ([3]; dog, IM, dose 2.5 mg/kg, Beagle dogs, t = 17 days, read-out: AUC0-t): 8600 ng·h/mL
Tmax ([3]; dog, IM, dose 5 mg/kg, Beagle dogs, n=3): 128 ± 27.7 h
human protein adjusted IC90 (HIV [4]): 4.31 ng/mL
Cmax ([5]; IM, dose 5 mg/kg): 100 ± 7.8 ng/mL
Tmax ([5]; IM, dose 5 mg/kg): 5.3 ± 2.3 h
half-life ([5]; IM, dose 5 mg/kg): 149 h
AUC(0-t) ([5]; IM, dose 5 mg/kg, t printed as '= days' (no number)): 7700 ng·h/mL
Cmax ([5]; IM, dose 20 mg/kg): 178 ± 56.9 ng/mL
Tmax ([5]; IM, dose 20 mg/kg): 8 ± 4 h
half-life ([5]; IM, dose 20 mg/kg): 298 h
AUC(0-t) ([5]; IM, dose 20 mg/kg, t = 42 days): 24900 ng·h/mL
Cmax ([5]; sc, SQ, dose 5 mg/kg): 170 ± 9.2 ng/mL
Tmax ([5]; sc, SQ, dose 5 mg/kg): 6.7 ± 2.3 h
half-life ([5]; sc, SQ, dose 5 mg/kg): 120 h
AUC(0-t) ([5]; sc, SQ, dose 5 mg/kg, t = 24 days): 8000 ng·h/mL
Cmax ([5]; sc, SQ, dose 20 mg/kg): 285 ± 48.4 ng/mL
Tmax ([5]; sc, SQ, dose 20 mg/kg): 6.7 ± 2.3 h
half-life ([5]; sc, SQ, dose 20 mg/kg): 463 h
AUC(0-t) ([5]; sc, SQ, dose 20 mg/kg, t = 57 days): 23900 ng·h/mL
Cmax ([6]; IM, n=3): 69.7 ± 7.2 ng/mL
half-life ([6]; IM, n=3): 118 h
AUC(0-t) ([6]; IM, t = 36 days): 16200 ng·h/mL
Cmax ([6]; sc, SQ, n=3): 59 ± 14.5 ng/mL
Tmax ([6]; sc, SQ, n=3): 208 ± 55.4 h
half-life ([6]; sc, SQ, n=3): 127 h
AUC(0-t) ([6]; sc, SQ, t = 40 days): 17400 ng·h/mL
SMILES: CC(C)C1=C2[C@H]3CC[C@@H]4[C@@]5(C)CC[C@H](OC(=O)CC(C)(C)C(=O)O)C(C)(C)[C@@H]5CC[C@@]4(C)[C@]3(C)CC[C@@]2([C@@H](O)CN(CCN(C)C)Cc2ccc(Cl)cc2)CC1=O [compound of Formula I, 4-(((3aR,5aR,5bR,7aR,9S,11aR,11bR,13aS)-3a-((R)-2-((4-Chlorobenzyl)(2-(dimethylamino)ethyl)amino)-1-hydroxyethyl)-1-isopropyl-5a,5b,8,8,11a-pentamethyl-2-oxo-3,3a,4,5,5a,5b,6,7,7a,8,9,10,11,11a,11b,12,13,13a-octadecahydro-2H-cyclopenta[a]chrysen-9-yl)oxy)-2,2-dimethyl-4-oxobutanoic acid]
